Measured values as given in patent US11583516B2, “Dash inhibitors, and uses related thereto” (Trustees of Tufts College, priority 2016, dated 2023).
Like-named read-outs stand apart in the source and are kept apart here.

Experiments:
G-CSF = assay: Serum cytokine induction in mice (G-CSF screen); assay type: in vivo, BALB/c mice
Text: No. MKC00B) • IL-18 (R&D Systems, Cat. […] Systems, Cat. No. […])

CT26 cells = assay: CT26 cell viability; assay type: cell-based
MV4;11 cells = assay: Cell line drug sensitivity (CellTiter-Glo); assay type: cell-based; conditions: MV4;11, AML M5; 48 h; read-out: IC50
NB4 cells = assay: Cell line drug sensitivity (CellTiter-Glo); assay type: cell-based; conditions: NB4, AML/APL M3; 48 h; read-out: IC50
DAOY cells = assay: Cell line drug sensitivity (CellTiter-Glo); assay type: cell-based; conditions: DAOY, Medulloblastoma; 48 h; read-out: IC50
Protocol: (§1) SET-2, RS4;11, and SKM-1 cells were purchased from DSMZ. HL-60, MV4;11, OCI-AML2, NB4, MOLM-13, NOMO-1, DAOY, HEL, IMR-5, K562, Kasumi-1, ONS-76, RDES-1, and TC-71 cells were a gift from Alex Kentsis and verified using STR genotyping (Genetica). […] MCF-7, Jurkat, THP-1, U937, HL-60, MV4;11, OCI-AML2, NB4, MOLM-13, NOMO-1, HEL, K562, SET-2, RS4;11, SKM-1 and Kasumi-1 were grown in RPMI-1640 medium with 10% FBS. All cells were grown at 37° C. in a 5% CO2 incubator. Cell lines were tested for mycoplasma using the MycoAlert Mycoplasma Detection Kit (Lonza).
(§2) Cells were plated (2000 cells/well) in white, 384-well clear bottom plates using an EL406 Microplate Washer/Dispenser (BioTek) in 25 μL final volume of media. Compounds were added using a pintool (CyBio) and cells were incubated for 48 h at 37° C. Assay plates were then removed from the incubator and allowed to equilibrate to room temperature on the bench top before addition of 10 μL of CellTiter-Glo reagent (Promega) according to the manufacturer's instructions. Assay plates were shaken on an orbital shaker for 2 minutes and incubated at room temperature on the bench top for 10 minutes. Luminescence was then read using a Cytation 5 Cell Imaging Multi-Mode Reader (BioTek). (FIG. 6)

HEL cells = assay: Cell line drug sensitivity (CellTiter-Glo); assay type: cell-based; conditions: AML/Erythroleukemis M6, 48 h, read-out: IC50
Protocol: as §1, §2

HL-60 cells = assay: Cell line drug sensitivity (CellTiter-Glo); assay type: cell-based; conditions: HL-60, AML M2; 48 h; read-out: IC50
Protocol: as §1, §2

HT-1080 cells = assay: Cell line drug sensitivity (CellTiter-Glo); assay type: cell-based; conditions: HT-1080, Fibrosarcoma; 48 h; read-out: IC50
Protocol: as §1, §2

IMR-5 cells = assay: Cell line drug sensitivity (CellTiter-Glo); assay type: cell-based; conditions: IMR-5, Neuroblastoma; 48 h; read-out: IC50
Protocol: as §1, §2

Jurkat cells = assay: Cell line drug sensitivity (CellTiter-Glo); assay type: cell-based; conditions: T-ALL, 48 h, read-out: IC50
Protocol: as §1, §2

K562 cells = assay: Cell line drug sensitivity (CellTiter-Glo); assay type: cell-based; conditions: K562, CML/Erythroleukemia; 48 h; read-out: IC50
Protocol: as §1, §2

KG-1 cells = assay: Cell line drug sensitivity (CellTiter-Glo); assay type: cell-based; conditions: KG-1, AML M0; 48 h; read-out: IC50
Protocol: as §1, §2

Kasumi-1 cells = assay: Cell line drug sensitivity (CellTiter-Glo); assay type: cell-based; conditions: Kasumi-1, AML M2; 48 h; read-out: IC50
Protocol: as §1, §2

MCF7 cells = assay: Cell line drug sensitivity (CellTiter-Glo); assay type: cell-based; conditions: MCF7, Breast; 48 h; read-out: IC50
Protocol: as §1, §2

MOLM-13 cells = assay: Cell line drug sensitivity (CellTiter-Glo); assay type: cell-based; conditions: MOLM-13, AML M5; 48 h; read-out: IC50
Protocol: as §1, §2

NOMO-1 cells = assay: Cell line drug sensitivity (CellTiter-Glo); assay type: cell-based; conditions: NOMO-1, AML M5; 48 h; read-out: IC50
Protocol: as §1, §2

OCI-AML3 cells = assay: Cell line drug sensitivity (CellTiter-Glo); assay type: cell-based; conditions: OCI-AML3, AML M4; 48 h; read-out: IC50
Protocol: as §1, §2

ONS-76 cells = assay: Cell line drug sensitivity (CellTiter-Glo); assay type: cell-based; conditions: ONS-76, Medulloblastoma; 48 h; read-out: IC50
Protocol: as §1, §2

RDES-1 cells = assay: Cell line drug sensitivity (CellTiter-Glo); assay type: cell-based; conditions: RDES-1, Ewing's sarcoma; 48 h; read-out: IC50
Protocol: as §1, §2

SET-2 cells = assay: Cell line drug sensitivity (CellTiter-Glo); assay type: cell-based; conditions: SET-2, AML/MPN; 48 h; read-out: IC50
Protocol: as §1, §2

SKM-1 cells = assay: Cell line drug sensitivity (CellTiter-Glo); assay type: cell-based; conditions: SKM-1, AML M5; 48 h; read-out: IC50
Protocol: as §1, §2

TC-71 cells = assay: Cell line drug sensitivity (CellTiter-Glo); assay type: cell-based; conditions: TC-71, Ewing's sarcoma; 48 h; read-out: IC50
Protocol: as §1, §2

THP-1 cells = assay: Cell line drug sensitivity (CellTiter-Glo); assay type: cell-based; conditions: THP-1, AML M5; 48 h; read-out: IC50
Protocol: as §1, §2

U937 cells = assay: Cell line drug sensitivity (CellTiter-Glo); assay type: cell-based; conditions: U937, AML/histiocytic lymphoma M5; 48 h; read-out: IC50
Protocol: as §1, §2

RS4;11 cells = assay: Cell line drug sensitivity (CellTiter-Glo); assay type: cell-based; conditions: RS4;11, AML/B-ALL; 48 h; read-out: IC50
RAW 264.7 WT cells = assay: Pyroptosis IC50 in cells; assay type: cell-based
MV4;11 Luc-Neo = assay: Pyroptosis IC50 in cells; assay type: cell-based
THP-1 sgGFP = assay: Pyroptosis IC50 in cells; assay type: cell-based
CT26 tumor = assay type: in vivo; conditions: CT26 model
[1] = Maximum tolerated dose study (single dose); assay type: in vivo, Sprague Dawley rats; conditions: with Pyrrophenone or AACOCF3, based on serum drug levels
Text: Bars show the MTD single dose in SD rats prior to seeing animal death. […] See also FIG. 33 for a similar comparison using cPLA2 inhibitors instead of COX inhibitors.
Bars show the MTD single dose in SD rats prior to seeing animal death. Based on serum drug levels, the addition of a cPLA2 inhibitors to the I-DASH inhibitor increases that MTD dose by at least 20-fold.
Bars show the MTD single dose in SD rats prior to seeing animal death.

MB49 tumor = assay: MB49 efficacy studies; assay type: in vivo, C57BL/6 mice
AML cell lines = assay: AML cell line sensitivity, summary over the panel; assay type: cell-based; conditions: most of these AML cell lines
Protocol: as §1, §2

cancer = conditions: in the clinic; cited from earlier work

Q: Which results are given for `CC(C)[C@H](N)C(=O)N1CCC[C@H]1B(O)O` [ARI-2054, Valine-boroProline]?
A: Average [G-CSF] at 6 hrs (G-CSF; 20 μg/animal PO): 55000 pg/mL; Average [G-CSF] at 6 hrs (G-CSF; 20 μg/animal SC): 97000 pg/mL; EC50 (CT26 cells): > 1000 µM; IC50 (MV4;11 cells): 0.078 µM; IC50 (NB4 cells): 0.1 µM; IC50 (DAOY cells): > 60 µM; IC50 (HEL cells): > 60 µM; IC50 (HL-60 cells): 0.115 µM; IC50 (HT-1080 cells): > 60 µM; IC50 (IMR-5 cells): > 60 µM; IC50 (Jurkat cells): > 60 µM; IC50 (K562 cells): > 60 µM; IC50 (KG-1 cells): 0.02 µM; IC50 (Kasumi-1 cells): > 60 µM; IC50 (MCF7 cells): > 60 µM; IC50 (MOLM-13 cells): 0.12 µM; IC50 (NOMO-1 cells): 0.16 µM; IC50 (OCI-AML3 cells): 0.08 µM; IC50 (ONS-76 cells): > 60 µM; IC50 (RDES-1 cells): > 60 µM; IC50 (SET-2 cells): 0.006 µM; IC50 (SKM-1 cells): 0.044 µM; IC50 (TC-71 cells): > 60 µM; IC50 (THP-1 cells): 0.206 µM; IC50 (U937 cells): > 60 µM; IC50 (RS4;11 cells): 0.147 µM; IC50 (RAW 264.7 WT cells): 0.098 µM; IC50 (MV4;11 Luc-Neo): 0.06 µM; IC50 (THP-1 sgGFP): 0.168 µM; Inhibition of tumor growth (average) (CT26 tumor; 10 micrograms): about 30%; Inhibition of tumor growth (average) (CT26 tumor; 20 micrograms): ~80%; Increase of MTD dose by addition of a cPLA2 inhibitor [1]: at least 20 fold; Tumor regression in combination with celecoxib (MB49 tumor; 20 microgram dose of Val-boroPro plus celecoxib): facilitated the achievement of tumor regression; Antitumor activity in combination with celecoxib (MB49 tumor; Val-boroPro plus celecoxib): increased the antitumor activity of Val-boroPro markedly (statistically significantly) and in a dose-dependent manner; IC50 (AML cell lines): > 0.1 µM; Clinical response (cancer): some partial and complete responses; Clinical toxicity (cancer): discontinued due to dose-limiting toxicity
